In patent publication US10604554B2, “Double-acylated GLP-1 derivatives” (Novo Nordisk A/S, priority 2012, dated 2020):

Key:
[1] = tested on: Landrace Yorkshire Duroc (LYD) pigs; assay: Pharmacodynamic (PD) study in pigs, food intake; assay type: in vivo, pig; conditions: single s.c. dose 3.0 nmol/kg; for PD in pig, food intake (% of vehicle) for hours 0-24: 0-24 h; for PD in pig, food intake (% of vehicle) for hours 24-48: 24-48 h
Outline: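 Female LYD pigs (~3 months, 30-35 kg, n=3-4) in individual pens, fed ad libitum, received one subcutaneous dose (3.0 nmol/kg) in phosphate buffer vehicle on day 1. Food intake was logged every 15 min and expressed per 24 h interval as percentage of vehicle group; two-way repeated-measures ANOVA with Bonferroni post-test.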

[2] = target: T1, human GLP-1 receptor (Homo sapiens, UniProt P43220); assay: In vitro potency (AlphaScreen cAMP, membranes); assay type: biochemical; conditions: cAMP formation in membranes from BHK467-12A cells expressing human GLP-1 receptor; read-out: In vitro potency (AlphaScreen) EC50
T1 construct: expressed in transfected cells; host or cells: BHK cells, clone FCW467-12A/KZ10-1 (parent line BHKTS13), further transfected with CRE luciferase
Outline: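 AlphaScreen competition read-out (anti-cAMP acceptor beads vs biotinylated cAMP, 3 h room temperature) quantified cAMP made by human GLP-1 receptor membranes, 6 μg/well, from stably transfected BHK467-12A cells. Buffer pH 7.4 contained 1 mM ATP, 1 μM GTP, 0.5 mM IBMX and 0.1% BSA; cAMP standard curve included.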

[3] = in vivo; conditions: male, Sprague Dawley, rat, iv
Protocol: The purpose of this Example is to investigate half-life in vivo in rat.
In vivo pharmacokinetic studies in rats were performed with the GLP-1 derivatives of a number of the Example compounds, as described in the following.
Male Sprague Dawley rats of same age with a body weight of approximately 400 g were obtained from Taconic (Denmark) and assigned to the treatments by simple randomisation on body weight, approximately 4 rats per group.
The GLP-1 derivatives (approximately 6 nmol/ml) were dissolved in 50 mM sodium phosphate, 145 mM sodium chloride, 0.05% tween 80, pH 7.4. Intravenous injections (1.0 ml/kg) of the compounds were given with a syringe in the tail vein of conscious rats. Blood was sampled from vena sublingualis for 5 days post dosing. Blood samples (200 μl) were collected in EDTA buffer (8 mM) and then centrifuged at 4° C. and 10000 G for 5 minutes. Plasma samples were kept at −20° C. until analyzed for plasma concentration of the respective GLP-1 compound.
The donor beads were coated with streptavidin, while acceptor beads were conjugated with a monoclonal antibody recognising a mid-/C-terminal epitope of the peptide. Another monoclonal antibody, specific for the N-terminus, was biotinylated. The three reactants were combined with the analyte and formed a two-sited immuno-complex. Illumination of the complex released singlet oxygen atoms from the donor beads, which were channeled into the acceptor beads and triggered chemiluminescence which was measured in an Envision plate reader. The amount of light was proportional to the concentration of the compound.
Plasma concentration-time profiles were analyzed using Phoenix WinNonLin ver. 6.2, Pharsight Inc., Mountain View, Calif., USA), and the half-life (T1/2) calculated using individual plasma concentration-time profiles from each animal.

[4] = in vivo; conditions: male, Göttingen, minipig, iv

T1 sequence (P43220 24-463): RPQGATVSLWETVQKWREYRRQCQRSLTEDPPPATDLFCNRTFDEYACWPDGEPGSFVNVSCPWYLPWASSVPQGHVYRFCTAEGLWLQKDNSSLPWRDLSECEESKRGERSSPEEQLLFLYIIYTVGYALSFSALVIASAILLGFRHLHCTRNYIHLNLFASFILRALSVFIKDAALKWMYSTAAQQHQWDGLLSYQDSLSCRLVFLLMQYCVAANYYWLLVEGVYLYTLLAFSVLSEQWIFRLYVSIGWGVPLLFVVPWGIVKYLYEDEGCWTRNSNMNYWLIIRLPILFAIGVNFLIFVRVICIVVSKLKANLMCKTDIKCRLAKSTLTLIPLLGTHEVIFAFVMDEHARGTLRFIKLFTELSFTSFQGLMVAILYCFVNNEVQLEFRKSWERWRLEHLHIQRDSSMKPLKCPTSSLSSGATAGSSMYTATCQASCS

CC[C@H](C)[C@H](NC(=O)[C@H](Cc1ccccc1)NC(=O)[C@H](CCC(=O)O)NC(=O)[C@H](CCCCNC(=O)[C@@H](N)CCCCNC(=O)COCCOCCNC(=O)COCCOCCNC(=O)CC[C@H](NC(=O)CCCCCCCCCCCCC(=O)O)C(=O)O)NC(=O)[C@H](C)NC(=O)[C@H](C)NC(=O)[C@H](CCC(N)=O)NC(=O)CNC(=O)[C@H](CCC(=O)O)NC(=O)[C@H](CC(C)C)NC(=O)[C@H](Cc1ccc(O)cc1)NC(=O)[C@H](CO)NC(=O)[C@H](CO)NC(=O)[C@@H](NC(=O)[C@H](CC(=O)O)NC(=O)[C@H](CO)NC(=O)[C@@H](NC(=O)[C@H](Cc1ccccc1)NC(=O)[C@@H](NC(=O)CNC(=O)[C@H](CCC(=O)O)NC(=O)C(C)(C)NC(=O)[C@@H](N)Cc1c[nH]cn1)[C@@H](C)O)[C@@H](C)O)C(C)C)C(=O)N[C@@H](C)C(=O)N[C@@H](Cc1c[nH]c2ccccc12)C(=O)N[C@@H](CC(C)C)C(=O)N[C@H](C(=O)N[C@@H](CCCNC(=N)N)C(=O)NCC(=O)N[C@@H](CCCNC(=N)N)C(=O)N[C@@H](CCCCNC(=O)[C@@H](N)CCCCNC(=O)COCCOCCNC(=O)COCCOCCNC(=O)CC[C@H](NC(=O)CCCCCCCCCCCCC(=O)O)C(=O)O)C(=O)O)C(C)C [Example 19, N^ε26-[(2S)-2-amino-6-[[2-[2-[2-[[2-[2-[2-[[(4S)-4-carboxy-4-(13-carboxytridecanoylamino)butanoyl]amino]ethoxy]ethoxy]acetyl]amino]ethoxy]ethoxy]acetyl]amino]hexanoyl], N^ε37-[(2S)-2-amino-6-[[2-[2-[2-[[2-[2-[2-[[(4S)-4-carboxy-4-(13-carboxytridecanoylamino)butanoyl]amino]ethoxy]ethoxy]acetyl]amino]ethoxy]ethoxy]acetyl]amino]hexanoyl]-[Aib^8,Arg^34,Lys^37]-GLP-1-(7-37)-peptide]
PD in pig, food intake (% of vehicle) for hours 0-24 [1]: 52 % of vehicle | PD in pig, food intake (% of vehicle) for hours 24-48 [1]: 64 % of vehicle | EC50 [2]: 57 pM | half-life [3]: 13 h | half-life [4]: 56 h

CC[C@H](C)[C@H](NC(=O)[C@H](Cc1ccccc1)NC(=O)[C@H](CCC(=O)O)NC(=O)[C@H](CCCCNC(=O)[C@@H](N)CCCCNC(=O)COCCOCCNC(=O)COCCOCCNC(=O)CC[C@H](NC(=O)CCCCCCCCCCCCCCC(=O)O)C(=O)O)NC(=O)[C@H](C)NC(=O)[C@H](C)NC(=O)[C@H](CCC(N)=O)NC(=O)CNC(=O)[C@H](CCC(=O)O)NC(=O)[C@H](CC(C)C)NC(=O)[C@H](Cc1ccc(O)cc1)NC(=O)[C@H](CO)NC(=O)[C@H](CO)NC(=O)[C@@H](NC(=O)[C@H](CC(=O)O)NC(=O)[C@H](CO)NC(=O)[C@@H](NC(=O)[C@H](Cc1ccccc1)NC(=O)[C@@H](NC(=O)CNC(=O)[C@H](CCC(=O)O)NC(=O)C(C)(C)NC(=O)[C@@H](N)Cc1c[nH]cn1)[C@@H](C)O)[C@@H](C)O)C(C)C)C(=O)N[C@@H](C)C(=O)N[C@@H](Cc1c[nH]c2ccccc12)C(=O)N[C@@H](CC(C)C)C(=O)N[C@H](C(=O)N[C@@H](CCCNC(=N)N)C(=O)NCC(=O)N[C@@H](CCCNC(=N)N)C(=O)N[C@@H](CCCCNC(=O)[C@@H](N)CCCCNC(=O)COCCOCCNC(=O)COCCOCCNC(=O)CC[C@H](NC(=O)CCCCCCCCCCCCCCC(=O)O)C(=O)O)C(=O)O)C(C)C [Example 10, N^ε26-[(2S)-2-amino-6-[[2-[2-[2-[[2-[2-[2-[[(4S)-4-carboxy-4-(15-carboxypentadecanoylamino)butanoyl]amino]ethoxy]ethoxy]acetyl]amino]ethoxy]ethoxy]acetyl]amino]hexanoyl], N^ε37-[(2S)-2-amino-6-[[2-[2-[2-[[2-[2-[2-[[(4S)-4-carboxy-4-(15-carboxypentadecanoylamino)butanoyl]amino]ethoxy]ethoxy]acetyl]amino]ethoxy]ethoxy]acetyl]amino]hexanoyl]-[Aib^8,Arg^34,Lys^37]-GLP-1-(7-37)-peptide]
PD in pig, food intake (% of vehicle) for hours 0-24 [1]: 105 % of vehicle | PD in pig, food intake (% of vehicle) for hours 24-48 [1]: 104 % of vehicle | EC50 [2]: 492 pM | half-life [3]: 28 h | half-life [4]: 97 h
